Results from patent US6730677B2, “Benzofurazan compounds which enhance AMPA receptor activity” (The Regents of the University of California, priority 1997, dated 2004).

Columns and labels:
AMPA receptors = experiment: Field EPSP amplitude in field CA1 of rat hippocampal slice (in vitro physiological testing); format: cell-based; details: estimated by interpolation or extrapolation
From the text: The field EPSP (excitory post-synaptic potential) recorded in field CA1 after stimulation of CA3 axons is known to be mediated by AMPA receptors, which are present in the synapses (Kessler et al., Brain Res. 560: 337-341 (1991)). Drugs that selectively block the receptor selectively block the field EPSP (Muller et al., Science, supra). […] These effects are mirrored in the field EPSP (see, for example, Staubli et al., Psychobiology, supra; Xiao et al., Hippocampus, supra; Staubli et al., Hippocampus 2:4958 (1992)).
To obtain the data shown in Table I, a bipolar nichrome stimulating electrode was positioned in the dendritic layer (stratum radiatum) of the hippocampal subfield CA1 close to the border of subfield CA3, as described in Example 21. Current pulses (0.1 msec) through the stimulating electrode activate a population of the Schaffer-commissural (SC) fibers, which arise from neurons in the subdivision CA3 and terminate in synapses on the dendrites of CA1 neurons. Activation of these synapses causes them to release the transmitter glutamate. Glutamate binds to the post-synaptic AMPA receptors which then transiently open an associated ion channel and permit a sodium current to enter the post-synaptic cell. This current results in a voltage in the extracellular space (the field EPSP), which is recorded by a high impedance recording electrode positioned in the middle of the stratum radiatum of CA1.
The intensity of the stimulation current was adjusted to produce half-maximal EPSPs (typically about 1.5-2.0 mV). Paired stimulation pulses were given every 40 sec with an interpulse interval of 200 msec, as described further in Example 21.
(§1) Hippocampal slices were maintained in a recording chamber continuously perfused with artificial cerebrospinal fluid (ACSF). During 15-30 minute intervals, the perfusion medium was switched to one containing various concentrations of the test compounds. Responses collected immediately before and at the end of drug perfusion were superimposed in order to calculate the percent increase in EPSP amplitude.
Invention compounds 1-9, as shown in FIG. 3 and Table I below, and reference compound CX516 (1-(quinoxalin-6-ylcarbonyl)piperidine), disclosed in PCT Pubn. No. WO 94/02475, were assayed in the physiological test system described above.
as §1, with “The physiological effects of invention compounds were tested in vitro with” for “Hippocampal”, “slices of rat hippocampus according to the following procedure. Excitatory responses (field EPSPs) were measured in hippocampal slices, which” for “slices”, “During a” for “During”, “interval,” for “intervals,”
To conduct these tests, the hippocampus was removed from anesthetized, 2 month old Sprague-Dawley rats and in vitro slices (400 micrometers thick) were prepared and maintained in an interface chamber at 35° C. using conventional techniques [see, for example, Dunwiddie and Lynch, J. Physiol. 276: 353-367 (1978)]. The chamber was constantly perfused at 0.5 mL/min with ACSF containing (in mM): NaCl 124, KCl 3, KH2PO4 1.25, MgSO42.5, CaCl2 3.4, NaHCO3 26, glucose 10 and L-ascorbate 2. A bipolar nichrome stimulating electrode was positioned in the dendritic layer (stratum radiatum) of the hippocampal subfield CA1 close to the border of subfield CA3.
Current pulses (0.1 msec) through the stimulating electrode activate a population of the Schaffer-commissural (SC) fibers which arise from neurons in the subdivision CA3 and terminate in synapses on the dendrites of CA1 neurons. Activation of these synapses causes them to release the transmitter glutamate. […]

[1] = test system: methamphetamine-induced hyperactivity and/or stereotypic activity; experiment: Methamphetamine/rat model of schizophrenia (hyperactivity and/or stereotypic activity); format: in vivo, Sprague-Dawley rats; details: for MEDS: Minimum Effective Dose that produces a statistically significant improvement in behavior in the animal model of schizophrenia: rats, 2 mg/kg methamphetamine, activity monitored for 90 minutes
Method: The dose recorded is that which reduced the hyperactivity and/or the stereotypic activity induced by acute administration of 2 mg/kg methamphetamine in rats, as described in Example 22.
The dose recorded is that which reduced the hyperactivity and/or the stereotypic activity induced by acute administration of 2 mg/kg methamphetamine in Sprague-Dawley rats aged 2-4 months. Activity was monitored for 90 minutes using two rows of multiple, paired infrared diode-detectors such that the lower row detected locomotion and the upper row detected rearing behavior. Data were collected by and stored in a personal computer for later analysis.

[2] = Eight-arm radial maze task for cognition/memory enhancement; format: in vivo
From the text: This task has been described previously (Staubli et al., PNAS 91:777-781 (1994)) and Lynch and Rogers, PCT Pubn. No. WO 94/02475).

[3] = Animal model of depression (Malatynska and Kostowski); format: in vivo; details: for MEDD: Minimum Effective Dose that produces a statistically significant improvement in behavior in an animal model of depression: in vivo; for Potency relative to the reference compound in the animal model of depression: compared with CX516
From the text: J. Pharmacol. 40, 357-364 (1984).

SMILES | melting point [°C] | Amp: concentration of compound that causes a 10% increase in the amplitude of the field EPSP in Field CA1 of rat hippocampal slice (AMPA receptors) [µM] | MEDC: Minimum Effective Dose that produces a statistically significant improvement in behavior in the eight-arm radial maze task [2] [mg/kg] | also measured
O=C(c1ccc2nsnc2c1)N1CCCCC1 [Compound 1, 1-(Benzo-2,1,3-thiadiazole-5-ylcarbonyl)piperidine] |  | <100 |  | 
O=C(c1ccc2nonc2c1)N1CCC(F)CC1 [Compound 4, 1-(Benzofurazan-5-ylcarbonyl)-4-fluoropiperidine] |  | 30 |  | MEDS: Minimum Effective Dose that produces a statistically significant improvement in behavior in the animal model of schizophrenia [1]: 1 mg/kg
O=C(c1ccc2nccnc2c1)N1CCCCC1 [CX516, 1-(quinoxalin-6-ylcarbonyl)piperidine, reference compound] |  | 50 | 15 | MEDS: Minimum Effective Dose that produces a statistically significant improvement in behavior in the animal model of schizophrenia [1]: 10 mg/kg; MEDD: Minimum Effective Dose that produces a statistically significant improvement in behavior in an animal model of depression [3]: 5 mg/kg
O=C(c1ccc2nonc2c1)N1CCOCC1 [Compound 7, 4-(Benzofurazan-5-ylcarbonyl)morpholine] |  | 3 | 0.1 | 
O=C(c1ccc2nonc2c1)N1CC=C(F)CC1 [Compound 6, 1-(Benzofurazan-5-ylcarbonyl)-1,2,3,6-tetrahydro-4-fluoropyridine] |  | 30 |  | 
O=C(c1ccc2nonc2c1)N1CC=CCC1 [Compound 3, 1-(Benzofurazan-5-ylcarbonyl)-1,2,3,6-tetrahydropyridine] |  | 100 |  | 
O=C(c1ccc2nonc2c1)N1CCC(F)(F)CC1 [Compound 5, 1-(Benzofurazan-5-ylcarbonyl)-4,4-difluoropiperidine] |  | 50 |  | MEDS: Minimum Effective Dose that produces a statistically significant improvement in behavior in the animal model of schizophrenia [1]: 1 mg/kg

Now from value to compound, other results behind:

melting point [°C] | SMILES | Amp: concentration of compound that causes a 10% increase in the amplitude of the field EPSP in Field CA1 of rat hippocampal slice (AMPA receptors) [µM] | MEDC: Minimum Effective Dose that produces a statistically significant improvement in behavior in the eight-arm radial maze task [2] [mg/kg] | also measured
144 to 146 | O=C(c1ccc2nonc2c1)[SH]1CCNCC1 [Compound 10, 1-(Benzofurazan-5-ylcarbonyl)thiomorpholine] |  |  | 
86 to 87 | CC1CCN(C(=O)c2ccc3nonc3c2)CC1 [Compound 13, 1-(Benzofurazan-5-ylcarbonyl)-4-methylpiperidine] |  |  | 
132 to 136 | O=C(c1ccc2nonc2c1)N1CCC(O)CC1 [Compound 9, 1-(Benzofurazan-5-ylcarbonyl)-4-hydroxypiperidine] | 20 | 0.1 | Potency relative to the reference compound in the animal model of depression [3]: approximately 500 fold; MEDD: Minimum Effective Dose that produces a statistically significant improvement in behavior in an animal model of depression [3]: 0.01 mg/kg
104 to 107 | N#CC1CCN(C(=O)c2ccc3nonc3c2)CC1 [Compound 8, 1-(Benzofurazan-5-ylcarbonyl)-4-cyanopiperidine] | 1 | 0.1 | 
97.8 to 99.3 | O=C(c1ccc2nonc2c1)N1CCCC1 [Compound 11, 1-(Benzofurazan-5-ylcarbonyl)pyrrolidine] |  |  | 
117 to 118 | O=C(c1ccc2nonc2c1)N1CC=CC1 [Compound 12, 1-(Benzofurazan-5-ylcarbonyl)-3-pyrroline] |  |  | 
88.5 to 90.5 | O=C(c1ccc2nonc2c1)N1CCCCC1 [Compound 2, 1-(Benzofurazan-5-ylcarbonyl)piperidine] | 3 | 0.1 | Reduction in dose giving an equivalent effect relative to reference compound CX516 ([1]; methamphetamine/rat model): hundred-fold; MEDS: Minimum Effective Dose that produces a statistically significant improvement in behavior in the animal model of schizophrenia [1]: 0.1 mg/kg; Potency relative to the reference compound in the animal model of depression [3]: approximately 500 fold; MEDD: Minimum Effective Dose that produces a statistically significant improvement in behavior in an animal model of depression [3]: 0.01 mg/kg
86 to 87 | O=C(c1ccc2nonc2c1)N1CCCCCC1 [Compound 14, 1-(Benzofurazan-5-ylcarbonyl)hexamethyleneimine] |  |  | 
